For 64 compounds, IC50 results are on record in PubChem BioAssay AID485340 (Southern Research Specialized Biocontainment Screening …, 2010).

In this assay the test system is M. tuberculosis growth, meropenem IC50 shift with compound. The assay can be described thus: confirmation, meropenem IC50 shift (AID 485340).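 Note: growth read after one week of culture plus overnight Alamar Blue.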
Setting [1] is: compound alone IC50 vs Mtb, compound dose (near its own IC50) 4.69 µM.
Setting [2] is: compound dose (near its own IC50) 4.69 µM.
[3] abbreviates: compound alone IC50 vs Mtb, compound dose (near its own IC50) 9.38 µM.
Where [4] appears, read: compound dose (near its own IC50) 9.38 µM.
Where [5] appears, read: compound alone IC50 vs Mtb, compound dose (near its own IC50) 2.35 µM.
The mark [6] stands for this setting: compound dose (near its own IC50) 2.35 µM.
[7] abbreviates: compound alone IC50 vs Mtb, compound dose (near its own IC50) 1.18 µM.
Where [8] appears, read: compound dose (near its own IC50) 1.18 µM.
Setting [9] is: compound alone IC50 vs Mtb, compound dose (near its own IC50) 0.15 µM.
Setting [10] is: compound dose (near its own IC50) 0.15 µM.
[11] abbreviates: compound alone IC50 vs Mtb, compound dose (near its own IC50) 0.59 µM.
[12] abbreviates: compound dose (near its own IC50) 0.59 µM.

Broadly, the IC50 is the concentration needed to halve the response being measured.

Calls of active or inactive are those of the source. The rule behind the calls is not given here.

Regarding `C[C@H](NC(=O)c1[nH]cnc1C(=O)Nc1cccc(Cl)c1)c1ccccc1`, the IC50 is 3.59 µM under setting [1] and less than 0.52 µM under setting [2].

As to `Nc1c2c(nc3sc4c(c13)CCCC4)-c1ccccc1CC2`, the concentration for half-maximal inhibition (IC50) under setting [1] worked out at 6.11 µM and the IC50 under setting [2] was 6.03 µM (inactive).

In the case of `CCOc1cc(/C=N\Nc2ccc([N+](=O)[O-])cc2)ccc1OCC(=O)Nc1ccc(C)c(C)c1`, the IC50 by setting is: under setting [1], 5.99 µM; under setting [2], 4.01 µM (inactive).

For `CC(=O)Nc1cccc(/C(C)=N/NC(N)=S)c1`, the IC50 under setting [3] was determined as 7.9 µM and the IC50 under setting [4] was 2.08 µM (inactive).

For `N#Cc1c(-c2cccs2)cc(-c2ccccn2)nc1N`, the IC50 reads like this: under setting [3], 6.92 µM; under setting [4], 0.73 µM.

Consider `Cc1ccc(-c2nc3[nH]c(=O)cc(NC(=O)C(C)C)n3n2)cc1`, for which the 50% inhibitory concentration (IC50) is, setting by setting: under setting [3], 7.36 µM; under setting [4], 3.83 µM (inactive).

On to `Cc1ccc(Cn2c(NC(=O)c3ccco3)nc3ccccc32)cc1`, for which the 50% inhibitory concentration (IC50) runs as follows: under setting [5], 2.62 µM; under setting [6], 4.24 µM (inactive).

For the compound `COC(=O)c1c(C)n(-c2ccccc2)c2ccc(O)cc12`, the 50% inhibitory concentration (IC50) is, setting by setting: under setting [7], 1.53 µM; under setting [8], 6.07 µM (inactive).

In the case of `C/C(=N\NC(=O)c1cc2c(s1)CCC(C)C2)c1ccc[nH]1` (stereo not drawn), the IC50 under setting [1] was 6.51 µM and the IC50 under setting [2] was 1.98 µM (inactive).

With `Cc1nnc(SCC2=C(C(=O)O)N3C(=O)C(NC(=O)COc4ccc(F)cc4)C3SC2)s1` (stereo not drawn), the IC50 by setting is: under setting [5], 1.74 µM; under setting [6], 1.04 µM (inactive).

Take `O=C(Nc1ccccc1)Nc1csc2ccccc12`: the IC50 under setting [9] is 0.2 µM and the IC50 under setting [10] was 4.85 µM (inactive).

As for `NC(=S)N/N=C/c1ccc(/C=N/NC(N)=S)cc1`, the IC50 reads like this: under setting [5], 2.5 µM; under setting [6], 4.04 µM (inactive).

Take `CCOc1ccc2nc(NC(=O)c3cnccn3)sc2c1`: the IC50 is 4.07 µM under setting [1] and 4.08 µM (inactive) under setting [2].

On to `CCOC(=O)c1c(C)n(-c2ccccc2)c2ccc(OCCN(C)C)cc12`, for which the IC50 is, setting by setting: under setting [1], 5.45 µM; under setting [2], 4.08 µM (inactive).

In the case of `Cc1cc(/C=N/NC(=O)CC#N)c(C)n1-c1ccc([N+](=O)[O-])cc1`, the 50% inhibitory concentration (IC50) was 10.2 µM under setting [3] and 4.08 µM (inactive) under setting [4].

As for `C/C(=N\NC(=O)c1cc(Br)ccc1O)c1ccccn1`, the IC50 by setting is: under setting [1], 3.88 µM; under setting [2], 1.73 µM (inactive).

As to `CC1=Nc2ccccc2/C1=C\c1nc(-c2ccc(F)cc2)oc1O`, the IC50 by setting is: under setting [1], 3.73 µM; under setting [2], 4.02 µM (inactive).

Take `O=C(Nc1cccc(Cl)c1N1CCOCC1)c1ccc([N+](=O)[O-])o1`: the IC50 under setting [7] was 0.909 µM and the IC50 under setting [8] is 7.42 µM (inactive).

In the case of `Cc1cc(C)c(OCC(=O)Nc2nc3ccccc3[nH]2)c(C)c1`, the IC50 was 1.22 µM under setting [7] and 7.24 µM (inactive) under setting [8].

Consider `CCOC(=O)c1cnc2cc(-c3ccc(C(C)(C)C)cc3)nn2c1N`, for which the IC50 was 0.899 µM under setting [7] and 7.5 µM (inactive) under setting [8].

Take `COC(=O)c1sc(-c2ccc(C(C)(C)C)cc2)cc1NC(=O)CCC(=O)O`: the IC50 was 1.37 µM under setting [7] and 7.19 µM (inactive) under setting [8].

`CCc1ccc(NC(=O)c2c(Cl)nc(C)c(Cl)c2C)cc1`: the half-maximal inhibitory concentration (IC50) was 7.1 µM under setting [3] and 7.77 µM (inactive) under setting [4].

With `C[C@H](NC(=O)c1[nH]cnc1C(=O)Nc1ccc(Cl)cc1)C(=O)OC(C)(C)C`, the IC50 by setting is: under setting [3], 10.4 µM; under setting [4], 4.93 µM (inactive).

In the case of `CSc1ncnc2c1ccn2CC(=O)Nc1ccc(C)c(C)c1`, the IC50 is, setting by setting: under setting [3], 8.44 µM; under setting [4], 7.31 µM (inactive).

Consider `COc1c(F)c(F)c(C(=O)Nc2c(C)cc(Br)cc2C)c(F)c1F`, for which the IC50 by setting is: under setting [1], 4.58 µM; under setting [2], 5.02 µM (inactive).

As to `COc1cc(C(=O)Oc2ccccc2/C=N/NC(=O)c2ccc(C)c(Cl)c2)cc(OC)c1OC`, the IC50 reads like this: under setting [5], 1.96 µM; under setting [6], 4.26 µM (inactive).

For `COc1cccc(-c2ccc(-c3noc(-c4ccccc4F)n3)c(OC)n2)c1`, the IC50 under setting [3] was 9.65 µM and the IC50 under setting [4] is 4.08 µM (inactive).

For the compound `CSc1nc(-c2ccc(Cl)cc2)nn1S(=O)(=O)c1ccccc1`, the IC50 is 9.85 µM under setting [3] and 4.13 µM (inactive) under setting [4].

With `CCOC(=O)COc1nc(-c2ccc(Cl)cc2)cc(-c2ccco2)c1C#N`, the half-maximal inhibitory concentration (IC50) is, setting by setting: under setting [1], 3.82 µM; under setting [2], 7.14 µM (inactive).

On to `COc1cccc(NC(=O)C2CC2)c1`, for which the IC50 by setting is: under setting [1], 6.09 µM; under setting [2], 2.07 µM (inactive).

As for `CCNC(=S)N/N=C1\C(=O)c2cccc3cccc1c23`, the IC50 under setting [1] was determined as 5.46 µM and the IC50 under setting [2] was 4.97 µM (inactive).

`NC(=S)N/N=C/c1ccc2ccccc2c1`: the IC50 by setting is: under setting [5], 2.02 µM; under setting [6], 1.95 µM (inactive).

`CN(C)c1ccc(/C=C/c2nc3ccccc3s2)cc1`: the IC50 was 8.97 µM under setting [3] and 3.55 µM (inactive) under setting [4].

With `C/C(=N\NC(N)=S)c1ccc(-n2ccnc2)cc1`, the IC50 was 6.58 µM under setting [3] and 3.97 µM (inactive) under setting [4].

As for `CC(C)Cn1c2c(c(O)c(C(=O)Nc3nccs3)c1=O)CCCC2`, the concentration for half-maximal inhibition (IC50) is 3.22 µM under setting [5] and 4.05 µM (inactive) under setting [6].

Take `C=C1C(=O)O[C@@H]2[C@H]1[C@@H](OC(=O)/C(C)=C/C)C/C(C)=C\C(=O)/C=C(\C)[C@@H]2O`: the IC50 runs as follows: under setting [7], 1.24 µM; under setting [8], 6.46 µM (inactive).

As to `Cc1cc(NC(=O)/C=C/c2ccccc2Cl)n(-c2nc3ccccc3[nH]2)n1`, the IC50 reads like this: under setting [5], 1.94 µM; under setting [6], 5.88 µM (inactive).

For the compound `COc1cccc(/C=N/NC(=O)CSCC(=O)Nc2ccccc2)c1O`, the IC50 runs as follows: under setting [1], 5.41 µM; under setting [2], 3.28 µM (inactive).

Regarding `Cc1ccc(-c2[nH][nH]c(=O)c(=O)c2N=Nc2ccccc2)cc1`, the 50% inhibitory concentration (IC50) under setting [1] is 4.12 µM and the IC50 under setting [2] was 4.07 µM (inactive).

Regarding `Cc1cc(C)cc(NC(=O)c2cc(Cl)sc2Cl)c1`, the IC50 is 4.84 µM under setting [1] and 1.88 µM (inactive) under setting [2].

As to `O=c1oc(-c2ccccc2F)nc2scc(-c3ccccc3)c12`, the IC50 is 2.19 µM under setting [5] and 5.8 µM (inactive) under setting [6].

For the compound `Cc1ccc2[nH]c(O)c(N=Nc3nc4ccccc4s3)c2c1`, the IC50 by setting is: under setting [1], 6.76 µM; under setting [2], 5.1 µM (inactive).

Consider `O=C1O/C(=C/c2ccccc2)N=C1c1ccccc1`, for which the IC50 under setting [7] was determined as 1.34 µM and the IC50 under setting [8] was 4.56 µM (inactive).

`O=C(COc1ccc2ccccc2c1)Nc1nc2ccccc2[nH]1`: the IC50 is 5.83 µM under setting [1] and 2.07 µM (inactive) under setting [2].

Consider `O=C(COC(=O)C1CC1)NCc1ccccc1Cl`, for which the IC50 was 1.37 µM under setting [7] and 2.59 µM (inactive) under setting [8].

On to `COc1ccc2c(c1)c(C(C)=O)c(C)n2-c1ccccc1`, for which the 50% inhibitory concentration (IC50) was 0.336 µM (compound alone IC50 vs Mtb, compound dose (near its own IC50) 0.3 µM) and 7.65 µM (inactive) (compound dose (near its own IC50) 0.3 µM).

For `c1ccc(-c2cc(N3CCOCC3)nc3ccccc23)cc1`, the IC50 is, setting by setting: under setting [5], 2.78 µM; under setting [6], 3.41 µM (inactive).

In the case of `N/C(=N\c1nc2ccccc2o1)NC(=O)c1ccccc1Br`, the IC50 reads like this: under setting [9], 0.2 µM; under setting [10], 7.58 µM (inactive).

Regarding `Cc1ccc(CC(=O)Nc2nc3ccccc3[nH]2)cc1C`, the IC50 reads like this: under setting [1], 6.31 µM; under setting [2], 4.04 µM (inactive).

Consider `CCC(C(=O)NC1C(=O)N2C(C(=O)O)=C(CSc3nnc(C)s3)CSC12)c1ccccc1` (stereo not drawn), for which the IC50 under setting [11] came out at 0.587 µM and the IC50 under setting [12] was 1.99 µM (inactive).

As for `c1ccc(OCc2nnc(-c3ccccc3)o2)cc1`, the IC50 is 1.4 µM under setting [7] and 7.26 µM (inactive) under setting [8].

Regarding `COc1ccc(/C=C/C(=O)N(C(C)C)C(C)C)cc1Br`, the IC50 is 5.89 µM under setting [1] and 4.03 µM (inactive) under setting [2].

Take `COc1cccc(C(=O)C2CCCN(Cc3ccccn3)C2)c1` (stereo not drawn): the IC50 is 1.46 µM under setting [7] and 7.15 µM (inactive) under setting [8].

Regarding `COc1ccc(Cl)cc1NC(=O)C/C(C)=N/NC(=O)CC#N`, the IC50 under setting [3] was found to be 7.99 µM and the IC50 under setting [4] is 2.83 µM (inactive).

In the case of `c1ccc(Nc2ncnc3c2oc2ccccc23)cc1`, the IC50 under setting [5] is 2 µM and the IC50 under setting [6] is 6.76 µM (inactive).

For the compound `Cc1nn(-c2ccccc2)cc1/C=N/NC(N)=S`, the IC50 is 3.7 µM under setting [1] and 2.68 µM (inactive) under setting [2].

Turning to `C/C(=N\NC(=S)Nc1ccccc1C)c1ccc(O)cc1`, the half-inhibitory concentration (IC50) was 0.552 µM under setting [11] and 7.22 µM (inactive) under setting [12].

As to `Cc1[nH]n(-c2ccccc2)c(=O)c1/C=N/NC(=O)c1ccoc1C`, the 50% inhibitory concentration (IC50) by setting is: under setting [11], 0.655 µM; under setting [12], 7.56 µM (inactive).

As for `O=C(COC(=O)C1=COCCO1)Nc1ccc2c(c1)OCO2`, the IC50 reads like this: under setting [1], 3.86 µM; under setting [2], 4.01 µM (inactive).

As to `N=C1C(c2nc3ccccc3[nH]2)=C(O)CN1c1ccc(F)cc1`, the IC50 by setting is: under setting [3], 7.73 µM; under setting [4], 4.04 µM (inactive).

Consider `O=C(NN=C(Cc1ccccc1)Cc1ccccc1)c1ccccc1F`, for which the IC50 runs as follows: under setting [7], 1.64 µM; under setting [8], 4.28 µM (inactive).

Consider `Cc1c(OCc2ccc(C(=O)O)cc2)ccc2c(-c3ccccc3)cc(=O)oc12`, for which the IC50 was 1.42 µM under setting [5] and 2.62 µM (inactive) under setting [6].

`Cc1onc(-c2c(Cl)cccc2Cl)c1/C(N)=N/OC(=O)C1CC1`: the half-maximal inhibitory concentration (IC50) is 2.05 µM under setting [5] and 1.02 µM (inactive) under setting [6].

`CCc1ccc2nc(/N=C(\N)NC(=O)c3ccccc3)nc(C)c2c1`: the IC50 was 1.02 µM under setting [7] and 4.22 µM (inactive) under setting [8].
